# Experimental data published in patent US20090060851A1, “USE OF IDEBENONE FOR THE PREPARATION OF A TOPICALLY-APPLIED DEPIGMENTATION COMPOSITION AND CORRESPONDING COMPOSITION” (priority 2005, published 2009).
# How the values were obtained:
# [1] = Idebenone dosing in skin cuts by gas chromatography (penetration); type: in vivo, mice; conditions: mouse skin, topical cream
# Experimental: Creams containing 5% and 2.5% w/w idebenone (IDB) in a neutral phase were prepared. Said creams and a cream having an identical formulation but without idebenone were applied on nude adult mice with 3 months of age. The cream with idebenone was applied on the right half of the body of the animals and the control cream on the left half according to the scheme detailed below. The animals were sacrificed 1, 2, 3 or 4 hours after applying the cream (p.a.). • Batch A: animal treated with 5% IDB (1 hour p.a.) • Batch B: animal treated with 2.5% IDB (1 hour p.a.) • Batch C: animal treated with 5% IDB (2 hours p.a.) • Batch D: animal treated with 2.5% IDB (2 hours p.a.) • Batch E: animal treated with 5% IDB (3 hours p.a.) • Batch F: animal treated with 2.5% IDB (3 hours p.a.) • Batch G: animal treated with 5% IDB (4 hours p.a.) • Batch H: animal treated with 2.5% IDB (4 hours p.a.) […]
# Idebenone dosing by gas chromatography: The treated and control skin sections were placed epidermis side down on a cryostat stage and 300 micron thick sections parallel to the surface were obtained in such a manner so as to obtain a deep cut, a surface cut and a medium cut. […] Each extract was analyzed by gas chromatography using a Hewlett Packard 5890 gas chromatograph, using a capillary column with methyl silicone as stationary phase (HP-IMS, 25 m×0.2 mm, 0.33μ thick film). […]
# [2] = tested on: SK-MEL-28; assay: Melanin content determination (OD400) in SK-MEL cells; type: cell-based, human
# Experimental: In vitro determinations were performed following the method devised by Dooley et al. (Skin Pharmacol. 1994; 7:188-200) in order to evaluate the capacity of idebenone to inhibit melanogenesis, according to the process described below:
# Cells: The study was carried out using a cell line derived from human melanoma, provided by ABAC (Asociación Banco Argentino de Células—Cell Bank of Argentina), with melanin synthesis capability (SK-MEL-28, ATCC origin). The cells were grown in plastic culture bottles or in 24-well plastic dishes in a modified Eagle medium (DMEM) supplemented with 10% fetal bovine serum (FBS) and were maintained at 37° C. in a 5% CO2 atmosphere.
# Study of in vitro compounds: SK-MEL cells detached with trypsin were seeded on plastic 24-well dishes (density of 1×10^5 cells per well) and incubated for 24 hours in modified Eagle medium (DMEM) supplemented with 10% fetal bovine serum (FBS) prior to treating with the compound to be evaluated. After 24 hours have lapsed, the medium was replaced with 990 μl of fresh medium. 10 μl of sterile vehicle (50% propylene glycol, 30% ethanol and 20% distilled water) containing different concentrations of the compounds to be evaluated were added to this fresh medium.
# Decimal dilutions of each compound in the sterile vehicle were prepared in order to obtain final concentrations of the compound to be studied ranging between 1.000 and 0.01 μg/ml. […]
# […] The cells were thus continuously exposed to the compounds under study for the 5 days the culture lasted. All the concentrations of the compounds were studied in triplicate, comparing the mean of the 3 wells treated with the compounds with those treated with the vehicle alone.
# Melanin content determination: The SK-MEL cell melanin content was determined after stirring the culture medium and washing the cells with PBS. The cells were then lysated by means of adding 1 ml of 1N NaOH to each well and repeated manual pipetting. The raw cell extract was analyzed using a spectrophotometer at 400 and 475 nm to determine the melanin and dopaquinone content, respectively. The results were expressed as a percentage of the cell cultures treated with the vehicle.
# [3] = Example 9 (similar to Example 6), dilution −2
# [4] = Example 9 (similar to Example 6), dilution −3
# [5] = Example 9 (similar to Example 6), dilution −4
# [6] = Example 9 (similar to Example 6), dilution −5
# [7] = Example 9 (similar to Example 6), dilution −6
# [8] = Example 9 (similar to Example 6), dilution −7
# [9] = Example 9 (similar to Example 6), dilution −8
# [10] = dilution −1, treated daily 3 days, assayed day 5
# [11] = dilution −2, treated 1 day, evaluated third day
# [12] = dilution −2, treated daily 3 days, assayed day 5
# [13] = dilution −3, treated 1 day, evaluated third day
# [14] = dilution −3, treated daily 3 days, assayed day 5
# [15] = dilution −4, treated 1 day, evaluated third day
# [16] = dilution −4, treated 2 days, evaluated fourth day
# [17] = dilution −4, treated daily 3 days, assayed day 5
# [18] = dilution −5, treated 1 day, evaluated third day
# [19] = dilution −5, treated 2 days, evaluated fourth day
# [20] = dilution −5, treated daily 3 days, assayed day 5
# [21] = dilution −6, treated 1 day, evaluated third day
# [22] = dilution −6, treated 2 days, evaluated fourth day
smiles,measurement,setting,value
"COC1=C(OC)C(=O)C(CCCCCCCCCCO)=C(C)C1=O [idebenone, 6-(10-hydroxydecyl)-2,3-dimethoxy-5-methyl-1,4-benzoquinone]",Penetration of IDB in the skin,[1],penetrates the skin and is retained up to two hours after its application in the most superficial sections
same,OD400 (melanin),[2]; [3],0.01166
same,OD400 Percentage (melanin),[2]; [3],71.40%
same,OD400 (melanin),[2]; [4],0.01566
same,OD400 Percentage (melanin),[2]; [4],95.89%
same,OD400 (melanin),[2]; [5],0.01533
same,OD400 Percentage (melanin),[2]; [5],93.87%
same,OD400 (melanin),[2]; [6],0.01466
same,OD400 Percentage (melanin),[2]; [6],89.77%
same,OD400 (melanin),[2]; [7],0.009
same,OD400 Percentage (melanin),[2]; [7],55.11%
same,OD400 (melanin),[2]; [8],0.01166
same,OD400 Percentage (melanin),[2]; [8],71.40%
same,OD400 (melanin),[2]; [9],0.01166
same,OD400 Percentage (melanin),[2]; [9],71.40%
same,Melanin synthesis inhibition,"[2]; SK-MEL-28, Example 5",inhibits melanin synthesis in a dose-dependent manner
same,OD400 (melanin),[2]; [10],0.0156
same,OD400 expressed as percentage of control (melanin),[2]; [10],28%
same,OD400 (melanin),[2]; [11],0.0040
same,OD400 Percentage (melanin),[2]; [11],14.65%
same,OD400 (melanin),[2]; [12],0.0140
same,OD400 expressed as percentage of control (melanin),[2]; [12],40%
same,OD400 (melanin),[2]; [13],0.0133
same,OD400 Percentage (melanin),[2]; [13],48.72%
same,OD400 (melanin),[2]; [14],0.0123
same,OD400 expressed as percentage of control (melanin),[2]; [14],52%
same,OD400 (melanin),[2]; [15],0.0243
same,OD400 Percentage (melanin),[2]; [15],89.01%
same,OD400 (melanin),[2]; [16],0.0613
same,OD400 Percentage (melanin),[2]; [16],112.89%
same,OD400 (melanin),[2]; [17],0.0096
same,OD400 expressed as percentage of control (melanin),[2]; [17],59%
same,OD400 (melanin),"[2]; dilution −4, treated for 3 days, evaluated fifth day",0.0686
same,OD400 Percentage (melanin),"[2]; dilution −4, treated for 5 days (heading: 3 days), evaluated fifth day",77.69%
same,OD400 (melanin),[2]; [18],0.0343
same,OD400 Percentage (melanin),[2]; [18],125.64%
same,OD400 (melanin),[2]; [19],0.0626
same,OD400 Percentage (melanin),[2]; [19],115.28%
same,OD400 (melanin),[2]; [20],0.0066
same,OD400 expressed as percentage of control (melanin),[2]; [20],66%
same,OD400 (melanin),"[2]; dilution −5, treated for 3 days, evaluated fifth day",0.0742
same,OD400 Percentage (melanin),"[2]; dilution −5, treated for 5 days (heading: 3 days), evaluated fifth day",84.03%
same,OD400 (melanin),[2]; [21],0.0313
same,OD400 Percentage (melanin),[2]; [21],114.65%
same,OD400 (melanin),[2]; [22],0.0396
same,OD400 Percentage (melanin),[2]; [22],72.92%
same,OD400 (melanin),"[2]; dilution −6, treated for 3 days, evaluated fifth day",0.0801
same,OD400 Percentage (melanin),"[2]; dilution −6, treated for 5 days (heading: 3 days), evaluated fifth day",90.71%
same,Melanogenesis inhibition at high dilutions,[2]; −2 to −8 dilutions,preserves its ability to inhibit melanogenesis
